According to patent publication US7282519B2 (priority 2003, dated 2007):
Read-outs that look alike come from different tables or passages of the source.

What was measured:
[1] = test system: Normal Rat; experiment: Measurement of urine excretion using a nitrosated diuretic compound, intravenous; type: in vivo, Male Wistar rats; conditions: for Total Urine Volume (ml) at: 0.5 h / Total Urine Volume (ml) at: 1 h / Total Urine Volume (ml) at: 2 h: normal rat, intravenous slow bolus, 3 mg/kg (Example 12: 3 mg/kg equivalent), n = 6
[2] = test system: Normal Rat; type: in vivo, Male Wistar rats; conditions: intravenous slow bolus, 1 mg/kg (each compound), n = 3

Row | melting point | Structure (SMILES) | other results
1 | 79 to 81 °C | NS(=O)(=O)c1cc(C(=O)OC[C@H]2CCCN2N=O)c(NCc2ccco2)cc1Cl | 
2 | 125 to 138 °C (dec.) | C[C@@H](CNC(=O)COC(=O)c1cc(S(N)(=O)=O)c(Cl)cc1NCc1ccco1)O[N+](=O)[O-] | 
3 | 135 °C | NS(=O)(=O)c1cc(C(=O)OCC(=O)NCCO[N+](=O)[O-])c(NCc2ccco2)cc1Cl | 
4 | 170 °C | NS(=O)(=O)c1cc(C(=O)OCC(=O)N2CCC(CCO[N+](=O)[O-])CC2)c(NCc2ccco2)cc1Cl | 
5 | 60 to 62 °C | CCN(CCO[N+](=O)[O-])C(=O)COC(=O)c1cc(S(N)(=O)=O)c(Cl)cc1NCc1ccco1 | 
6 | 115 to 118 °C | NS(=O)(=O)c1cc(C(=O)OCC(=O)N[C@@H](CCO[N+](=O)[O-])CO[N+](=O)[O-])c(NCc2ccco2)cc1Cl | 
7 | 51 to 61 °C | NS(=O)(=O)c1cc(C(=O)NCCOC(=O)[C@@H]2CCCN2[15N]=O)c(NCc2ccco2)cc1Cl | 

Continued, compound first:

Row | Structure (SMILES) | melting point | other results
8 | CN(CCO[N+](=O)[O-])C(=O)COC(=O)c1cc(S(N)(=O)=O)c(Cl)cc1NCc1ccco1 | 70 to 72 °C | 
9 | NS(=O)(=O)c1cc(C(=O)OCC(=O)NC[C@H](CO[N+](=O)[O-])O[N+](=O)[O-])c(NCc2ccco2)cc1Cl [Example 12, (N-((2R)-2,3-Bis(nitrooxy)propyl)carbamoyl)methyl4-chloro-2-((2-furylmethyl)amino)-5-sulfamoylbenzoate] | 143 to 153 °C (dec.) | Total Urine Volume (ml) at: 0.5 h [1]: 4.2 ± 0.4 mL; Total Urine Volume (ml) at: 1 h [1]: 5.3 ± 0.5 mL; Total Urine Volume (ml) at: 2 h [1]: 6.2 ± 0.5 mL; Diuresis in the rat ([1]; rat, intravenous, 3 mg/kg equivalent): elicits diuresis
10 | NS(=O)(=O)c1cc(C(=O)OCC(=O)N2CCC[C@@H]2CO[N+](=O)[O-])c(NCc2ccco2)cc1Cl | 64 to 66 °C | 
11 | NS(=O)(=O)c1cc(C(=O)OCC(=O)N2CCC(CO[N+](=O)[O-])CC2)c(NCc2ccco2)cc1Cl | 115 to 117 °C | 
12 | NS(=O)(=O)c1cc(C(=O)O)c(NCc2ccco2)cc1Cl [Furosemide, furosemide, reference compound] |  | Total Urine Volume (ml) at: 1 h ([2]; 1 h, mean ± spread): 3.3 ± 1.7 mL; Total Urine Volume (ml) at: 2 h ([2]; 2 h): 3.3 ± 1.7 mL; Total Urine Volume (ml) at: 3 h ([2]; 3 h): 5.0 ± 0.6 mL; Total Urine Volume (ml) at: 0.5 h [1]: 6.7 ± 1.2 mL; Total Urine Volume (ml) at: 1 h [1]: 8.8 ± 1.2 mL; Total Urine Volume (ml) at: 2 h [1]: 11.0 ± 1.3 mL
